Source: article PMC12216609, “Inhibitors of eIF1A-ribosome interaction unveil uORF-dependent regulation of translation initiation and antitumor and antiviral effects” (The EMBO Journal, 2025)
Where “and” joins values, the source holds several entries; their conditions need not be identical. Equal values may be shown once.

Experiments:
eIF1A-RPS10 interaction = molecular target: T1, eIF1A-RPS10 interaction (Homo sapiens, UniProt P46783+P47813); assay: Split-Renilla luciferase eIF1A-RPS10 interaction screen, dose-response; type: biochemical; settings: Appendix Table S1; read-out: IC50 from the split RL screen
T1 construct: made in house; host or cells: E. coli BL21 (PRSFduet); unpurified lysate supernatant
T1 sequence (P47813 whole entry, one chain of several): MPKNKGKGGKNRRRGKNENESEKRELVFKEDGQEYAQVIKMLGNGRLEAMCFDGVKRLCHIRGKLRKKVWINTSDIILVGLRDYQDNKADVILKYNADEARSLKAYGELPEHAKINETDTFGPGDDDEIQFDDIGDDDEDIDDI
Protocol: While knockdown (KD) studies of eIF1A provided valuable insights into its role in mammalian cell translation (Sehrawat et al, [2019]), this approach presents several limitations. First, it fails to elucidate the functional significance of the opposing functions of eIF1A N- and C-terminal tails with respect to scanning and start codon fidelity. Second, the extended duration required for achieving efficient knockdown, 48–72 h, impairs our ability to differentiate between direct and indirect effects. To overcome these constraints, we set out to develop small-molecule inhibitors targeting eIF1A. Guided by structural and biochemical studies showing eIF1A binding to the small ribosomal subunit at the A-site and interacting directly with RPS10 through its N-terminal tail (Haimov et al, [2017]; Passmore et al, [2007]; Sehrawat et al, [2019]), our approach focused on disrupting the interaction between eIF1A and RPS10. […] The interaction between eIF1A and RPS10 brings the two parts together, leading to the reconstitution of the enzymatic activity (Haimov et al, [2017]). In this system, the spatial arrangement of the two RL parts is critical for the enzymatic activity, making it sensitive not only to direct interference with the interacting proteins but also to changes in the conformation of the fused proteins. In the eIF1A-RPS10 split-RL pair, the C-terminus of eIF1A is fused to N-RL (Fig. 1A), in order to maintain the NTT accessible to RPS10 binding. This pair was cloned and expressed in bacteria as recombinant proteins and used to screen a library of ~50,000 small molecules from diverse sources (Ashkenazi et al, [2017]).
eIF1A-ΔC-Renilla and RPS10-ΔN-Renilla were transformed into BL21 E. coli by heat shock transformation. A bacterial starter of 5 ml LB was incubated overnight at 37 °C and transferred into 1 L LB for incubation at 37 °C until OD ~ 0.5–0.7. Next, protein expression was induced with 0.5 mM IPTG, and bacterial cells were incubated overnight at 16 °C. Bacterial cell pellet was collected after centrifugation (3000 RPM, 15 min), resuspended in 20 ml TKE buffer (Tris 10 mM, KCl 100 mM, EDTA 0.1 mM), sonicated (bath sonicator, 24 cycles of 30 s) and centrifuged again (15000 RPM, 30 min). Supernatants were collected, analyzed for RL activity, and then used for high throughput drug screen (HTS) at the Weizmann G-INCPM HTS unit as described (Ashkenazi et al, [2017]). In addition to the standard controls of this protocol, the two parts of the split RL, without eIF1A or RPS10, were tested as controls. Selected compounds were purchased from Sigma-Aldrich and Enamine. Compound powders were resuspended in DMSO for a final concentration of 10 mM and stored at −20 °C.

[1] = system: CUG/GUG vs AUG start codon luciferase reporters in HEK293T cells; assay: Near-cognate AUG starting codon fidelity reporter assay (GUG, CUG vs AUG); type: cell-based
Protocol: We next considered the importance of eIF1A in controlling start codon fidelity in yeast and mammalian cells (Martin-Marcos et al, [2011]; Martin-Marcos et al, [2017]; Sehrawat et al, [2019]; She et al, [2023]) and tested how inhibition of eIF1A by 1Ais affects the initiation from near-cognate AUG. The effect of 1Ais was analyzed using firefly luciferase reporters bearing either AUG (control), CUG, or GUG as the exclusive translation initiation sites. Co-transfected GFP reporter served as an internal control for transfection efficiency.
For the near-cognate AUG Starting codon fidelity reporter assay, HEK293T cells were transfected with 100 ng of the previously described luciferase reporter constructs driven either by AUG, CUG, and GUG (Tang et al, [2017]) together with GFP expressing plasmid (20 ng) as normalizing control. Luciferase and GFP levels were determined as described above.
Appendix Figure S1: (A) HEK293T cells were transfected with Luciferase reporter genes with either CUG or AUG as their exclusive starting codon. 6 hours after transfection, cells were exposed to 1Ais, and the luminescence from all constructs was measured after overnight incubation. Bars represent the ratio between luminescence from the AUG starting codon and CUG after normalization with co-transfected GFP; Error bars represent SEM, * denotes p<0.05 (T-test comparing to DMSO control), n=≥4 independent biological replicates.

[2] = system: IRF7 5'UTR firefly luciferase reporter in HEK293T cells;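 further: luciferase signal corrected by a co-transfected GFP reporter for transfection efficiency, read after overnight compound exposure, with Long and Short reporters differing in 5'UTR length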
[3] = system: uORF-bearing 5'UTR firefly reporters in HEK293T cells; assay: uORF reinitiation / leaky scanning firefly reporters; settings: for averages of FF vs RL / FF vs RL / averages of FF vs RL 2 / FF vs RL 2: 95nt experiment; for averages of FF vs RL 2 / FF vs RL 2: block FF-2 (c113)
Excerpt: (M) The reference and uORF-bearing reporters were transfected to HEK293T cells together with RL, which served to normalize translation efficiency. The reporter activities are represented as firefly vs RL; n ≥3 independent biological replicates, error bars represent SEM. *P < 0.05, **P < 0.01, Student t test. (N) Firefly Reporters (J) were transfected to HEK293T cells together with normalizing RL. […] Results are represented as firefly vs. RL normalized to DMSO in each biological replicate; n = 4, error bars represent SEM. *P < 0.05, **P < 0.01, Student t test.
In the first and second, we inserted an out-of-frame uAUG 46 or 95 nucleotides before the main ORF, respectively, followed by a downstream stop codon generating an uORF of 10 amino acids. In these constructs, the translation from the main ORF could be either by reinitiation or leaky scanning. In the third construct, this out of frame uAUG lacks a stop codon, causing initiation from the main ORF to exclusively occur via leaky scanning (Fig. 4L). These reporters were transfected into HEK293T cells together with RL luciferase reporter for normalizing transfection efficiency. […] We next examined these reporters in the presence of 1Ais.

With `CNc1nc(-c2cc(C)n(C)c2C)cs1` [1Ai-0153] the IC50 (eIF1A-RPS10 interaction) was 27 µM, the “GUG vs AUG data (%)” value ([1]; compound at 20uM, individual repeat) was 1.78% and 1.33% and 1.95% and 1.92% and the “GUG vs AUG (%) Average” value ([1]; compound at 20uM, summary average of repeats, DMSO control average […]) was 1.74%. The “LONG (summary - All), normalized to DMSO” value ([2]; Long reporter, 20 µM, individual replicates, outliers excluded, DMSO = 1) was 0.73 and 0.87 and 1.53 and 0.96 and 1.14, the “SHORT (summary - All), normalized to DMSO” value ([2]; Short reporter, 20 µM, individual replicates, outliers excluded, DMSO = 1) was 0.72 and 0.98 and 1.54 and 1.66 and 1.69 and 1.65 and the “Long 5'UTR reporter luciferase activity, normalized to DMSO (=1), single replicates” value ([2]; compound at 20 µM, left data block (Long), source data of Fig 1C) was 0.734 and 0.8747 and 1.529 and 0.9608 and 2.673 and 1.141. For the same molecule, the “average ( long vs short ratio)” value ([2]; summary - All, 20 µM) was 0.762.
In the case of `O=C(Nc1nc(-c2c[nH]c3ccccc23)cs1)c1cc(=O)[nH]c2ccccc12` [compound 403], the “CUG vs AUG (%)” value ([1]; CUG start codon reporter relative to AUG reporter (AUG = 100), compound at 5uM (summary head), single-experiment calculation) is reported as 8.469% and the “GUG vs AUG (%)” value ([1]; GUG start codon reporter relative to AUG reporter (AUG = 100), compound at 5uM (summary head), single-experiment calculation) is reported as 1.79%.
With `O=C1c2ccccc2NC(c2cc(O)c(O)c(Cl)c2)N1c1ccccc1` (stereo not drawn) [1A-8214] the “averages of FF vs RL” value ([3]; block FF-1 (c104), reporter minus46, DMSO 0.0248618) was 0.02612, the “FF vs RL” value ([3]; block FF-1 (c104), reporter minus 46, DMSO 2.74E-02, 2.23E-02) was 2.94E-02 and 2.28E-02 and the “FF vs RL” value ([3]; block FF-1 (c104), reporter minus 46 plus 50, DMSO 2.94E-02, 2.09E-02) was 1.20E-02 and 1.67E-02. For the same molecule, the “averages of FF vs RL” value ([3]; block FF-1 (c104), reporter minus 95, DMSO 0.0251627) was 0.01437, the “averages of FF vs RL” value ([3]; block FF-1 (c104), reporter ref, DMSO 0.0298915) was 0.04961 and the “FF vs RL” value ([3]; block FF-1 (c104), reporter reference, DMSO 2.79E-02, 3.19E-02) was 6.51E-02 and 3.41E-02. For the same molecule, the “FF vs RL” value ([3]; block FF-1 (c131), reporter minus 46, DMSO 0.17626, 0.185518) was 0.2074 and 0.2118, the “averages of FF vs RL” value ([3]; block FF-1 (c131), reporter minus46, DMSO 0.180889) was 0.2096 and the “FF vs RL” value ([3]; block FF-1 (c131), reporter minus 46 plus 50, DMSO 0.437858, 0.481275) was 0.464 and 0.5005. For the same molecule, the “averages of FF vs RL” value ([3]; block FF-1 (c131), reporter minus 95, DMSO 0.459566) was 0.4822, the “averages of FF vs RL” value ([3]; block FF-1 (c131), reporter ref, DMSO 0.345569) was 0.2779 and the “FF vs RL” value ([3]; block FF-1 (c131), reporter reference, DMSO 0.39984, 0.291299) was 0.281 and 0.2748. For the same molecule, the “averages of FF vs RL 2” value ([3]; reporter minus46, DMSO 0.0506669) was 0.04195, the “FF vs RL 2” value ([3]; reporter minus 46, DMSO 3.43E-02, 5.07E-02) was 4.79E-02 and 3.60E-02 and the “FF vs RL 2” value ([3]; reporter minus 46 plus 50, DMSO 3.05E-02, 1.38E-02) was 1.96E-02 and 1.61E-02. The “averages of FF vs RL 2” value ([3]; reporter minus 95, DMSO 0.0221428) was 0.01783, the “averages of FF vs RL 2” value ([3]; reporter ref, DMSO 0.0383109) was 0.05624 and the “FF vs RL 2” value ([3]; reporter reference, DMSO 3.69E-02, 3.97E-02) was 6.80E-02 and 4.45E-02. For the same molecule, the “reporter activity norm to DMSO, minus46” value ([3]; minus46 reporter, 95nt from uORF to main ORF experiment, Figure 4N source data, replicate experiments, DMSO = 1) was 0.8043 and 1.051 and 0.8279, the “95nt from uORF to main ORF experiment, minus46, average (DMSO = 1)” value ([3]; minus46 reporter, average) was 0.8942 and the “reporter activity norm to DMSO, minus 95” value ([3]; minus 95 (nt) reporter, 95nt from uORF to main ORF experiment, Figure 4N source data, replicate experiments, DMSO = 1) was 1.049 and 0.5709 and 0.8051. The “95nt from uORF to main ORF experiment, minus 95nt, average (DMSO = 1)” value ([3]; minus 95nt reporter, average) was 0.8085, the “reporter activity norm to DMSO, ref” value ([3]; ref reporter, 95nt from uORF to main ORF experiment, Figure 4N source data, replicate experiments, DMSO = 1) was 1.159 and 1.66 and 1.468 and the “95nt from uORF to main ORF experiment, ref, average (DMSO = 1)” value ([3]; ref reporter, average) was 1.429.
